The values that follow come from US20140187627A1, “USES OF C15-SUBSTITUTED ANDROGRAPHOLIDE DERIVATIVES IN THE PREPARATION OF ANTI-HEPATITIS B VIRUS MEDICAMENT” (ZHENGZHOU UNIVERSITY, priority 2011, published 2014).

Values joined by “and” are separate entries in the source; they are usually repeats but may differ in a detail not shown here. Identical values can stand only once.

Series [1] deals with HBV surface antigen (HBsAg) of HBV-transfected HepG2.2.15 cell line. Put plainly: Inhibition of HBsAg secretion in culture supernatant of HepG2.2.15 cells (ELISA), with MTT cytotoxicity for therapeutic index. Format: cell-based, Hepatitis B virus. The protocol:
HepG2.2.15 cell line, stably transfected with HBV-DNA, was used to evaluate the inhibition of the compounds against the HBV surface antigen (HBsAg) level in the culture supernatant of HepG2.2.15 cell. HepG2.2.15 cells were seeded at a density of 1.25×10^4 cells/well into 48-well plates, 0.5 ml RPMI1640 medium containing 10% fetal bovine serum, 100 unit/ml penicillin, 100 μg/ml streptomycin and 380 μg/ml geneticin (G418) was added to the well. Cells were incubated at 37° C. in a humidified incubator of 5% CO2 for 24 h, and then the culture medium was replaced by fresh medium containing Lamivudine (the positive drug) and compounds of this invention at five concentrations. The culture medium was replaced by a fresh one after 3 days and 6 days incubation, respectively. On d9, the supernatant was collected to determine the HBsAg level and the cells were used to assay the viability by MTT method.
Add 100 μl PBS solution containing 0.5 mg/ml MTT [3-(4,5-dimethylthiazol-2-yl)-2,5diphenyltetrazolium bromide] to the well after removing the supernatant, incubate at 37° C. for 4 h, remove the medium, add […] of DMSO to each well and the plates were shaken for 10 min. The optical density value (A) of each well was read using a PowerWaveX Microplate Scanning Spectrophotometer (Bio-tek Instruments, Inc) at 490 nm. Cells survival rate was calculated. […]

The test system of a further series is HBV. Conditions: cited from earlier work.

For `Nc1ccn([C@@H]2CS[C@H](CO)O2)c(=O)n1` [Lamivudine], the “Therapeutic index (TI = TC50/IC50)” value in series [1] (HepG2.2.15 cells, treated for 9d, TC50 by MTT) was “greater than 2”. The IC50 in series [1] (Hepatitis B virus, HepG2.2.15, 216 h, read-out: IC50 against HBsAg secretion) was ~10 µg/mL and ~43.7 µM. As for `C=C1CCC2C(C)(COC(=O)c3cccnc3)C(OC(=O)c3cccnc3)CCC2(C)C1C=CC1=CC(=Cc2ccc(Cl)cc2)OC1=O` (stereo not drawn) [15-p-chlorobenzylidene-14-deoxy-11, 12-didehydro-3, 19-dinicotinate-andrographolide], the “Anti-HBV effect in vitro” value with HBV is listed as “anti-HBV effect in vitro”.
